Data published in PubChem BioAssay AID2060600 (Molecular Pharmacology Branch, DTP, NCI, 2025).

System: 996289-038-R-J1-PDC complex spheroid viability
Experiment: Anticancer human tumor 996289-038-R-J1-PDC patient-derived colon adenocarcinoma cell line growth inhibition [CLK]
Settings: for IC50: curve of first compound; for viability, T/C: stronger effect = lower value
Procedure, shortened: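 Multi-cell-type spheroids combined patient-derived tumor cells with HUVEC endothelial cells and human mesenchymal stem cells. Paired agents were dosed in half-log steps down from about clinical Cmax, or from 10 microM where Cmax was unknown.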

[1] = second compound 0.0316 µM, first compound 0.0316 µM
[2] = second compound 0.0316 µM, first compound 0.1 µM
[3] = second compound 0.0316 µM, first compound 0.316 µM
[4] = second compound 0.0316 µM, first compound 1 µM
[5] = second compound 0.0316 µM, first compound 3.16 µM
[6] = second compound 0.0316 µM, first compound 10 µM
[7] = second compound 0.1 µM, first compound 0.0316 µM
[8] = second compound 0.1 µM, first compound 0.1 µM
[9] = second compound 0.1 µM, first compound 0.316 µM
[10] = second compound 0.1 µM, first compound 1 µM
[11] = second compound 0.1 µM, first compound 3.16 µM
[12] = second compound 0.1 µM, first compound 10 µM
[13] = second compound 0.316 µM, first compound 0.0316 µM
[14] = second compound 0.316 µM, first compound 0.1 µM
[15] = second compound 0.316 µM, first compound 0.316 µM
[16] = second compound 0.316 µM, first compound 1 µM
[17] = second compound 0.316 µM, first compound 3.16 µM
[18] = second compound 0.316 µM, first compound 10 µM
[19] = second compound 1 µM, first compound 0.0316 µM
[20] = second compound 1 µM, first compound 0.1 µM
[21] = second compound 1 µM, first compound 0.316 µM
[22] = second compound 1 µM, first compound 1 µM
[23] = second compound 1 µM, first compound 3.16 µM
[24] = second compound 1 µM, first compound 10 µM
[25] = second compound 3.16 µM, first compound 0.0316 µM
[26] = second compound 3.16 µM, first compound 0.1 µM
[27] = second compound 3.16 µM, first compound 0.316 µM
[28] = second compound 3.16 µM, first compound 1 µM
[29] = second compound 3.16 µM, first compound 3.16 µM
[30] = second compound 3.16 µM, first compound 10 µM
[31] = second compound 10 µM, first compound 0.0316 µM
[32] = second compound 10 µM, first compound 0.1 µM
[33] = second compound 10 µM, first compound 0.316 µM
[34] = second compound 10 µM, first compound 1 µM
[35] = second compound 10 µM, first compound 3.16 µM
[36] = second compound 10 µM, first compound 10 µM
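Note: spheroids exposed to the agents for 7 days before readout.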

CC(C)CC(NC(=O)C(Cc1ccccc1)NC(=O)c1cnccn1)B(O)O (stereo unspecified) + CNC(=O)c1ccc(Nc2nc(OC3CCCC3)c3c(-c4ccc5nc(C)oc5c4)c[nH]c3n2)c(OC)c1
IC50 (second compound 0.0316 µM): 0.00457 µM | IC50 (second compound 0.1 µM): 0.00421 µM | IC50 (second compound 0.316 µM): 0.00184 µM | IC50 (second compound 1 µM): 0.00132 µM | IC50 (second compound 3.16 µM): 0.00114 µM | IC50 (second compound 10 µM): 0.0011 µM | viability, T/C (second compound 0.0316 µM, first compound 0.000949 µM): 121% | viability, T/C (second compound 0.0316 µM, first compound 0.003 µM): 76.2% | viability, T/C (second compound 0.0316 µM, first compound 0.00949 µM): 4.49% | viability, T/C (second compound 0.0316 µM, first compound 0.03 µM): 0.95% | viability, T/C (second compound 0.0316 µM, first compound 0.0949 µM): 3.14% | viability, T/C (second compound 0.0316 µM, first compound 0.3 µM): 0.51% | viability, T/C (second compound 0.1 µM, first compound 0.000949 µM): 139% | viability, T/C (second compound 0.1 µM, first compound 0.003 µM): 70% | viability, T/C (second compound 0.1 µM, first compound 0.00949 µM): 1.94% | viability, T/C (second compound 0.1 µM, first compound 0.03 µM): 0.61% | viability, T/C (second compound 0.1 µM, first compound 0.0949 µM): 0.54% | viability, T/C (second compound 0.1 µM, first compound 0.3 µM): 0.26% | viability, T/C (second compound 0.316 µM, first compound 0.000949 µM): 76.2% | viability, T/C (second compound 0.316 µM, first compound 0.003 µM): 30.4% | viability, T/C (second compound 0.316 µM, first compound 0.00949 µM): 0.98% | viability, T/C (second compound 0.316 µM, first compound 0.03 µM): 1.34% | viability, T/C (second compound 0.316 µM, first compound 0.0949 µM): 0.59% | viability, T/C (second compound 0.316 µM, first compound 0.3 µM): 1.22% | viability, T/C (second compound 1 µM, first compound 0.000949 µM): 66.4% | viability, T/C (second compound 1 µM, first compound 0.003 µM): 9.51% | viability, T/C (second compound 1 µM, first compound 0.00949 µM): 0.47% | viability, T/C (second compound 1 µM, first compound 0.03 µM): 0.42% | viability, T/C (second compound 1 µM, first compound 0.0949 µM): 3.6% | viability, T/C (second compound 1 µM, first compound 0.3 µM): 1.03% | viability, T/C (second compound 3.16 µM, first compound 0.000949 µM): 58.1% | viability, T/C (second compound 3.16 µM, first compound 0.003 µM): 6.51% | viability, T/C (second compound 3.16 µM, first compound 0.00949 µM): 1.11% | viability, T/C (second compound 3.16 µM, first compound 0.03 µM): 0.54% | viability, T/C (second compound 3.16 µM, first compound 0.0949 µM): 0.85% | viability, T/C (second compound 3.16 µM, first compound 0.3 µM): 1.44% | viability, T/C (second compound 10 µM, first compound 0.000949 µM): 56.3% | viability, T/C (second compound 10 µM, first compound 0.003 µM): 6.54% | viability, T/C (second compound 10 µM, first compound 0.00949 µM): 1.51% | viability, T/C (second compound 10 µM, first compound 0.03 µM): 0.65% | viability, T/C (second compound 10 µM, first compound 0.0949 µM): 0.7% | viability, T/C (second compound 10 µM, first compound 0.3 µM): 2.05%

CC1(C)CCC(CN2CCN(c3ccc(C(=O)NS(=O)(=O)c4ccc(NCC5CCOCC5)c([N+](=O)[O-])c4)c(Oc4cnc5[nH]ccc5c4)c3)CC2)=C(c2ccc(Cl)cc2)C1 + CNC(=O)c1ccc(Nc2nc(OC3CCCC3)c3c(-c4ccc5nc(C)oc5c4)c[nH]c3n2)c(OC)c1
IC50 (second compound 0.0316 µM): 9.12 µM | IC50 (second compound 0.1 µM): 8.96 µM | IC50 (second compound 0.316 µM): 7.56 µM | IC50 (second compound 1 µM): 6.26 µM | IC50 (second compound 3.16 µM): 5.76 µM | IC50 (second compound 10 µM): 5.18 µM | viability, T/C [1]: 128% | viability, T/C [2]: 110% | viability, T/C [3]: 115% | viability, T/C [4]: 127% | viability, T/C [5]: 139% | viability, T/C [6]: 43.5% | viability, T/C [7]: 125% | viability, T/C [8]: 123% | viability, T/C [9]: 138% | viability, T/C [10]: 119% | viability, T/C [11]: 134% | viability, T/C [12]: 41.9% | viability, T/C [13]: 80.2% | viability, T/C [14]: 82.7% | viability, T/C [15]: 88.7% | viability, T/C [16]: 90.7% | viability, T/C [17]: 103% | viability, T/C [18]: 37.5% | viability, T/C [19]: 67.2% | viability, T/C [20]: 67.7% | viability, T/C [21]: 74% | viability, T/C [22]: 74.7% | viability, T/C [23]: 100% | viability, T/C [24]: 31.6% | viability, T/C [25]: 65% | viability, T/C [26]: 61.7% | viability, T/C [27]: 67.1% | viability, T/C [28]: 70.7% | viability, T/C [29]: 84.1% | viability, T/C [30]: 32% | viability, T/C [31]: 61.5% | viability, T/C [32]: 59.1% | viability, T/C [33]: 61.3% | viability, T/C [34]: 72.7% | viability, T/C [35]: 81.3% | viability, T/C [36]: 27%

CC1COCCN1c1cc(C2(S(C)(=N)=O)CC2)nc(-c2ccnc3[nH]ccc23)n1 (stereo unspecified) + CNC(=O)c1ccc(Nc2nc(OC3CCCC3)c3c(-c4ccc5nc(C)oc5c4)c[nH]c3n2)c(OC)c1
IC50 (second compound 0.0316 µM): > 10 µM | IC50 (second compound 0.1 µM): > 10 µM | IC50 (second compound 0.316 µM): > 10 µM | IC50 (second compound 1 µM): 3.67 µM | IC50 (second compound 3.16 µM): 2.84 µM | IC50 (second compound 10 µM): 2.13 µM | viability, T/C [1]: 116% | viability, T/C [2]: 126% | viability, T/C [3]: 118% | viability, T/C [4]: 117% | viability, T/C [5]: 122% | viability, T/C [6]: 100% | viability, T/C [7]: 129% | viability, T/C [8]: 135% | viability, T/C [9]: 129% | viability, T/C [10]: 122% | viability, T/C [11]: 121% | viability, T/C [12]: 88.1% | viability, T/C [13]: 84.8% | viability, T/C [14]: 83% | viability, T/C [15]: 79.4% | viability, T/C [16]: 73.2% | viability, T/C [17]: 73.8% | viability, T/C [18]: 58.5% | viability, T/C [19]: 70.3% | viability, T/C [20]: 71.5% | viability, T/C [21]: 68.8% | viability, T/C [22]: 57.5% | viability, T/C [23]: 54.2% | viability, T/C [24]: 36.9% | viability, T/C [25]: 68.5% | viability, T/C [26]: 60.9% | viability, T/C [27]: 55.8% | viability, T/C [28]: 64% | viability, T/C [29]: 46% | viability, T/C [30]: 39.8% | viability, T/C [31]: 59.3% | viability, T/C [32]: 55.7% | viability, T/C [33]: 57% | viability, T/C [34]: 53.7% | viability, T/C [35]: 48.1% | viability, T/C [36]: 31%
